We go through 2 compounds from patent US8354569B2, “Plant acyltransferases specific for long-chained, multiply unsaturated fatty acids” (University of Bristol, priority 2003, dated 2013).

The test system of one assay is Thraustochytrium LPAAT. The experiment in a line: Acyl-CoA specificity of Thraustochytrium LPAAT expressed as GST fusion protein in E. coli. The note with it: 0.4 μg soluble protein fraction, 30 μM 1-oleoyl[U-14C]glycerol-3-phosphate, increasing thioester concentrations. Type of assay: biochemical. The source says: The PCR product was transferred into the vector pDONOR221 by Gateway reaction (BP reaction; Invitrogen) following the manufacturer's instructions, and the sequence was verified by sequencing. In a next step, the ThLPAAT sequence was then transferred into the vector pDES15 by the LR reaction and employed for expression in E. coli BL21 cells. The ThLPAAT sequence was attached to the open reading frame of the glutathione-S transferase (GST) encoded in the plasmid, in accordance with the manufacturer's instructions. This gave rise to a fusion protein of GST and ThLPAAT.
Expressed protein was detected after expression under standard conditions in E. coli (FIG. 21A) and purified via a glutathione column.
The enzyme assays were determined using 0.4 μg of soluble protein fraction in the presence of 100 mM Tricine-NaOH (pH 8.2), 30 μM 1-oleoyl[U-^14C]glycerol-3-phosphate and increasing concentrations of the thioesters detailed.

Another assay concerns Shewanella LPAAT. In words: Functional expression of Shewanella LPAAT in E. coli, enzyme assays. Type of assay: biochemical, Shewanella hanedai. As to conditions: expressed at 10° C. in E. coli BL21, with or without His-tag; 30 μM thioester. The source says:
To clone an LPAAT gene from the prokaryotic organism Shewanella, the genomic DNA from Shewanella hanedai was isolated, partially digested with Sau3a and ligated into the vector pUC18. This genomic library was screened for LPAAT genes by a PCR using different primer combinations. This method has made it possible to identify a 1486 by clone whose open reading frame codes for a 25.2 kDa LPAAT protein. The ShLPAAT sequence was introduced into the vector pQE70 (Qiagen) in accordance with the manufacturer's instructions. The resulting plasmids pQE70-Sh and pQE70-ShHis and the blank vector pQE70 were transformed into E. coli BL21 cells and expressed at 10° C. (FIG. 22A). Active protein was obtained at this temperature only (FIG. 22B). The membrane fractions were used for this purpose in the further experiments. […] The high incorporation rate with regard to PUFA acyl-CoA residues is required for the use for the production of PUFA.
The assays were carried out with extracts (1 μg) from E. coli comprising the blank vector (pQE70) or a Shewanella construct without (pQE-Sh) or with His-Tag sequence at the 3′ end (pQE-ShHis) in the presence of 30 μM 1-oleoyl[U-14C]glycerol-3-phosphate and 30 μM of the detailed thioesters.

Assay [1] relates to GPAT. The experiment in a line: GPAT acyl-CoA substrate specificity, linseed microsomal membranes. As to conditions: 0.2 mM acyl-CoA, 5 mM [14C] G3P, 5 minutes. Type of assay: biochemical. The procedure: (§1) All the procedures were carried out at 4° C. The cotyledons of maturing sunflower seeds and linseed were harvested approximately 10 days after anthesis and suspended in 0.1 M sodium phosphate buffer (pH 7.2), comprising 0.33 M sucrose and 0.1% BSA (free from fatty acids). After comminution in a glass homogenizer, the homogenate was centrifuged for 30 minutes at 20 000×g. The supernatant was filtered through one layer of Miracloth and centrifuged for 90 minutes in an ultracentrifuge at 100 000×g. The pelleted microsomal membranes were washed with 0.1 M sodium phosphate buffer (pH 7.2) and resuspended in a small volume of buffer, using a glass homogenizer. The microsomal membrane preparations were either immediately processed or stored at −80° C.
(§2) The specificity of the GPAT was studied to verify whether the enzyme has a preference for certain acyl-CoAs, in particular to determine whether the GPAT from oil seed plants converts LCPUFA-CoAs. Microsomal membranes were incubated with 0.5 mM (Mortierella) or 0.2 mM (sunflower and linseed) of one of the following acyl-CoAs: myristoyl-CoA (14:0-CoA), palmitoyl-CoA (16:0-CoA), palmitoleoyl-CoA (16:1-CoA), stearoyl-CoA (18:0-CoA), oleoyl-CoA (18:1-CoA), linoleoyl-CoA (18:2-CoA), dihomo-gamma-linolenoyl-CoA (20:3-CoA) or arachidonyl-CoA (20:4-CoA) and 5 mM [^14C] G3P. Microsomal membranes (equivalent to 50 μg of protein in the case of sunflower and Mortierella and 150 μg of protein in the case of linseed) were added to the reaction mixture in order to start the reaction. After incubation for 5 minutes, the lipids were extracted by the method of Bligh & Dyer, and the radioactivity incorporated in complex lipids was determined.

In assay [2] the test system is LPAAT. In words: LPAAT acyl-CoA substrate specificity, linseed microsomal membranes. Type of assay: biochemical. As to conditions: 20 nmol acyl-CoA, sn-1-oleoyl-lysophosphatidic acid, DTNB assay. The procedure:
as §1
(§3) The specificity of the LPAAT was studied in order to verify whether the enzyme has a preference for certain acyl-CoAs, in particular to determine whether the LPAAT from oil seed plants converts LCPUFA-CoAs. […] The assay comprised sn-1-oleoyl-lysophosphatidic acid (30 nmol), DTNB (50 nmol) and 20 nmol of one of the following acyl-CoAs: palmitoyl-CoA (16:0-CoA), stearoyl-CoA (18:0-CoA), oleoyl-CoA (18:1-CoA), linoleoyl-CoA (18:2-CoA), dihomo-gamma-linolenyl-CoA (20:3-CoA) or arachidonyl-CoA (20:4-CoA) in 1 ml of 0.1 M phosphate buffer, pH 7.2. […] Microsomal membranes (equivalent to 10 μg of protein in the case of Mortierella and 40 μg of protein in the case of sunflower and linseed) were added to the reaction mixture in order to start the reaction.

In assay [3] the test system is LPCAT. The experiment in a line: LPCAT acyl-CoA substrate specificity, linseed microsomal membranes. Type of assay: biochemical. The procedure: as §1
(§4) LPCAT activity was determined in a continuous spectraphotometric assay in which 5,5-dithiobis-2-nitrobenzoate (DTNB) was used, and the change in absorption at 409 nm and 25° C. was monitored. The assay comprised sn-1-palmitolysophosphatidylcholine (30 nmol) as acyl acceptor, DTNB (50 nmol) and 20 nmol of one of the following acyl-CoAs: myristoyl-CoA (14:0-CoA), palmitoyl-CoA (16:0-CoA), palmitoleoyl-CoA (16:1-CoA), stearoyl-CoA (18:0-CoA), oleoyl-CoA (18:1-CoA), linoleoyl-CoA (18:2-CoA), dihomo-gamma-linolenyl-CoA (20:3-CoA) or arachidonyl-CoA (20:4-CoA) in 1 ml of 0.1 M phosphate buffer, pH 7.2. The reaction was started by addition of microsomal membrane preparation. The amount of microsomal membrane preparation added was 5 μg (Mortierella and sunflower) or 30 μg (linseed).

The test system of assay [4] is GPAT. The experiment in a line: GPAT acyl-CoA substrate specificity, sunflower microsomal membranes. Type of assay: biochemical. As to conditions: 0.2 mM acyl-CoA, 5 mM [14C] G3P, 5 minutes. The procedure: as §1, §2
For assay [5], the system named is LPAAT. In words: LPAAT acyl-CoA substrate specificity, sunflower microsomal membranes. Type of assay: biochemical. The note with it: 20 nmol acyl-CoA, sn-1-oleoyl-lysophosphatidic acid, DTNB assay. The procedure:
as §1, §3

The test system of assay [6] is LPCAT. In words: LPCAT acyl-CoA substrate specificity, sunflower microsomal membranes. Type of assay: biochemical. As to conditions: 20 nmol acyl-CoA, sn-1-palmitolysophosphatidylcholine, DTNB assay. The procedure:
as §1, §4

Assay [7] relates to GPAT. In words: GPAT acyl-CoA substrate specificity, Mortierella microsomal membranes. Type of assay: biochemical, Mortierella alpina. As to conditions: Mortierella GPAT; 0.5 mM acyl-CoA, 5 mM [14C] G3P, 5 minutes. The procedure: (§5) Mortierella cultures were harvested after 5 days and placed on ice. All further procedures were carried out at 4° C. The mycelium was suspended in 0.1 M sodium phosphate buffer (pH 7.2), comprising 0.33 M sucrose, 0.1% BSA (free from fatty acids), 1000 units of catalase/ml and 1 mM Pefabloc. The following steps were carried out as described under “preparations of microsomal membranes from cotyledons of maturing seeds of sunflower and linseed”.
as §2

Assay [8] concerns LPAAT. The experiment in a line: LPAAT acyl-CoA substrate specificity, Mortierella microsomal membranes. Type of assay: biochemical, Mortierella alpina. The note with it: Mortierella LPAAT; 20 nmol acyl-CoA, sn-1-oleoyl-lysophosphatidic acid, DTNB assay. The procedure: as §5, §3
Assay [9] deals with LPCAT. The experiment in a line: LPCAT acyl-CoA substrate specificity, Mortierella microsomal membranes. The class given is biochemical, Mortierella alpina. As to conditions: Mortierella LPCAT; 20 nmol acyl-CoA, sn-1-palmitolysophosphatidylcholine, DTNB assay. The procedure: as §5, §4

For the compound `CC/C=C\C/C=C\C/C=C\C/C=C\C/C=C\C/C=C\CCC(=O)SCCNC(=O)CCNC(=O)[C@H](O)C(C)(C)COP(=O)(O)OP(=O)(O)OC[C@H]1O[C@@H](n2cnc3c(N)ncnc32)[C@H](O)[C@@H]1OP(=O)(O)O` [DHA-CoA], the “LPAAT activity of the purified GST fusion protein by acyl-CoA” value with Thraustochytrium LPAAT is “highest activity”. Besides, the “Incorporation activity of the membrane fraction” value in the assay with Shewanella LPAAT is reported as “high level of activity”.
Turning to `CCCCC/C=C\C/C=C\CCCCCCCC(=O)SCCNC(=O)CCNC(=O)[C@H](O)C(C)(C)COP(=O)(O)OP(=O)(O)OC[C@H]1O[C@@H](n2cnc3c(N)ncnc32)[C@H](O)[C@@H]1OP(=O)(O)O` [Linoleoyl-CoA, linoleoyl-CoA], the “Percentage incorporation in comparison with the incorporation of oleic acid” value was found to be 90% in the assay with GPAT [1]; 120% with LPAAT [2]; 100% in the assay with LPCAT [3] (20 nmol acyl-CoA, sn-1-palmitolysophosphatidylcholine, DTNB assay); 85% with GPAT [4]; 250% with LPAAT [5]; 120% with LPCAT [6]. Further, the “Percentage incorporation in comparison with the incorporation of oleic acid” value in the assay with GPAT [7] is recorded as 90%; with LPAAT [8], 90%; in the assay with LPCAT [9], 40%. In the assay with LPCAT [3], the “LPCAT activity (in words)” value is “converted equally efficiently”.
